Measurements reported in US20060122153A1, “Antineoplastic ether lipid compounds with modifications at the sn-2 carbon” (priority 2003, published 2006).

How the values were obtained:
Type in all cases: cell-based, human
OVCAR-3 = test: NCI growth inhibition screen, ovarian panel; parameters: key: = means equivalent activity; + means that it appears to be significantly better (i.e., by ˜2x); < means it appears to be less active than ET18OCH3 (˜2x); a combination like =/+ or </+ means that activity is dependent upon the isomer; a combination like =/+ or </+ means that activity is dependent upon the isomer; settings: OVCAR-3, Ovarian; from GI50s
Procedure: (§1) Candidates deemed suitable for in vivo testing were then synthesized in large scale quantities and some of this material was sent to the NCI's Developmental Therapeutics Program for a battery of growth inhibitory studies against various human tumor cell lines (60 cell lines, 9 different panels). The remainder of the material was used to assess in vivo efficacy using murine tumor models. Additionally, studies were conducted on the lead candidates to discern mechanism of action with particular emphasis on these agents apoptotic ability as measured by caspase 3 activity. The details (materials and methods) for these various assays are described further in the following discussion.
(§2) Ten compounds were also sent to NCI's Drug Discovery Program for screening against numerous human tumor cell lines (9 panels total: renal ovarian, colon, CNS, non-small cell lung, leukemia, breast, melanoma, and prostate). The data are shown in FIGS. 2a-i which also include data regarding D- and L-ET-18-OCH3 (listed as L-EL and D-EL in the figures). Upon examining the data, one is struck by how 1R and 1a′S standout in comparison to the other compounds, especially for the renal, ovarian, colon, and CNS panels.

IGROV1 = test: NCI growth inhibition screen, ovarian panel; parameters: key: = means equivalent activity; + means that it appears to be significantly better (i.e., by ˜2x); < means it appears to be less active than ET18OCH3 (˜2x); a combination like =/+ or </+ means that activity is dependent upon the isomer; a combination like =/+ or </+ means that activity is dependent upon the isomer; settings: from GI50s
Procedure: as §1, §2

SK-OV-3 = test: NCI growth inhibition screen, ovarian panel; parameters: key: = means equivalent activity; + means that it appears to be significantly better (i.e., by ˜2x); < means it appears to be less active than ET18OCH3 (˜2x); a combination like =/+ or </+ means that activity is dependent upon the isomer; a combination like =/+ or </+ means that activity is dependent upon the isomer; settings: SK-OV-3, Ovarian; from GI50s
Procedure: as §1, §2

OVCAR-8 = test: NCI growth inhibition screen, ovarian panel; parameters: key: = means equivalent activity; + means that it appears to be significantly better (i.e., by ˜2x); < means it appears to be less active than ET18OCH3 (˜2x); a combination like =/+ or </+ means that activity is dependent upon the isomer; a combination like =/+ or </+ means that activity is dependent upon the isomer; settings: OVCAR-8, Ovarian; from GI50s
Procedure: as §1, §2

MDA-MB-435 = test: NCI growth inhibition screen, breast panel; parameters: key: = means equivalent activity; + means that it appears to be significantly better (i.e., by ˜2x); < means it appears to be less active than ET18OCH3 (˜2x); a combination like =/+ or </+ means that activity is dependent upon the isomer; a combination like =/+ or </+ means that activity is dependent upon the isomer; settings: MDA-MB-435, Breast; from GI50s
Procedure: as §1, §2

HS 578T = test: NCI growth inhibition screen, breast panel; parameters: key: = means equivalent activity; + means that it appears to be significantly better (i.e., by ˜2x); < means it appears to be less active than ET18OCH3 (˜2x); a combination like =/+ or </+ means that activity is dependent upon the isomer; a combination like =/+ or </+ means that activity is dependent upon the isomer; settings: from GI50s
Procedure: as §1, §2

OVCAR-4 = test: NCI growth inhibition screen, ovarian panel; parameters: key to Performance as compared to ET-18-O—CH3: = means equivalent activity; + means that it appears to be significantly better (i.e., by ˜2x); < means it appears to be less active than ET18OCH3 (˜2x); a combination like =/+ or </+ means that activity is dependent upon the isomer; a combination like =/+ or </+ means that activity is dependent upon the isomer; settings: for activity compared to both ET-18-OCH3 isomers (in words): OVCAR-4, NCI screen; for Performance as compared to ET-18-O—CH3: OVCAR-4, Ovarian, from GI50s
Procedure: as §1, §2

OVCAR-5 = test: NCI growth inhibition screen, ovarian panel; parameters: key to Performance as compared to ET-18-O—CH3: = means equivalent activity; + means that it appears to be significantly better (i.e., by ˜2x); < means it appears to be less active than ET18OCH3 (˜2x); a combination like =/+ or </+ means that activity is dependent upon the isomer; a combination like =/+ or </+ means that activity is dependent upon the isomer; settings: for activity compared to both ET-18-OCH3 isomers (in words): OVCAR-5, NCI screen; for Performance as compared to ET-18-O—CH3: OVCAR-5, Ovarian, from GI50s
Procedure: as §1, §2

COLO 205 = test: NCI growth inhibition screen, colon panel; parameters: key: = means equivalent activity; + means that it appears to be significantly better (i.e., by ˜2x); < means it appears to be less active than ET18OCH3 (˜2x); a combination like =/+ or </+ means that activity is dependent upon the isomer; a combination like =/+ or </+ means that activity is dependent upon the isomer; settings: COLO 205, Colon; from GI50s
Procedure: as §1, §2

HCC-2998 = test: NCI growth inhibition screen, colon panel; parameters: key: = means equivalent activity; + means that it appears to be significantly better (i.e., by ˜2x); < means it appears to be less active than ET18OCH3 (˜2x); a combination like =/+ or </+ means that activity is dependent upon the isomer; a combination like =/+ or </+ means that activity is dependent upon the isomer; settings: HCC-2998, Colon; from GI50s
Procedure: as §1, §2

SW-620 = test: NCI growth inhibition screen, colon panel; parameters: key: = means equivalent activity; + means that it appears to be significantly better (i.e., by ˜2x); < means it appears to be less active than ET18OCH3 (˜2x); a combination like =/+ or </+ means that activity is dependent upon the isomer; a combination like =/+ or </+ means that activity is dependent upon the isomer; settings: SW-620, Colon; from GI50s
Procedure: as §1, §2

HCT-15 = test: NCI growth inhibition screen, colon panel; parameters: key: = means equivalent activity; + means that it appears to be significantly better (i.e., by ˜2x); < means it appears to be less active than ET18OCH3 (˜2x); a combination like =/+ or </+ means that activity is dependent upon the isomer; a combination like =/+ or </+ means that activity is dependent upon the isomer; settings: HCT-15, Colon; from GI50s
Procedure: as §1, §2

| SMILES | Performance as compared to ET-18-O—CH3 (OVCAR-3) | Performance as compared to ET-18-O—CH3 (IGROV1) | Performance as compared to ET-18-O—CH3 (SK-OV-3) | Performance as compared to ET-18-O—CH3 (OVCAR-8) | Performance as compared to ET-18-O—CH3 (MDA-MB-435) | Performance as compared to ET-18-O—CH3 (HS 578T) | activity compared to both ET-18-OCH3 isomers (in words) (OVCAR-4) | Performance as compared to ET-18-O—CH3 (OVCAR-4) | activity compared to both ET-18-OCH3 isomers (in words) (OVCAR-5) | Performance as compared to ET-18-O—CH3 (OVCAR-5) | Performance as compared to ET-18-O—CH3 (COLO 205) | Performance as compared to ET-18-O—CH3 (HCC-2998) | Performance as compared to ET-18-O—CH3 (SW-620) | Performance as compared to ET-18-O—CH3 (HCT-15) |
| --- | --- | --- | --- | --- | --- | --- | --- | --- | --- | --- | --- | --- | --- | --- |
| CCCCCCCCCCCCCCCCCCOC[C@@H](COP(=O)([O-])OCC[N+](C)(C)C)OS(C)(=O)=O [1a′S] | 0 | 0 | 0 | 0 | 0 | 0 | significantly better activity | 2048 | significantly better activity | 4096 | 0 | 128 | 1024 | 512 |
| CCCCCCCCCCCCCCCCCCOCC(COP(=O)([O-])OCC[N+](C)(C)C)OS(C)(=O)=O (stereo not shown) [Compound 1aR] | = | = | = | = | = | = | significantly better activity | + | significantly better activity | + | = | + | + | = |
